The values below come from publication PMC7159426 (American Journal of Respiratory and Critical Care Medicine, 2020).

Experiment [1] concerns the target T1, sheep TMEM16A (Ovis aries, UniProt A0ACI6NM12).
T1 sequence (A0ACI6NM12 1-1040): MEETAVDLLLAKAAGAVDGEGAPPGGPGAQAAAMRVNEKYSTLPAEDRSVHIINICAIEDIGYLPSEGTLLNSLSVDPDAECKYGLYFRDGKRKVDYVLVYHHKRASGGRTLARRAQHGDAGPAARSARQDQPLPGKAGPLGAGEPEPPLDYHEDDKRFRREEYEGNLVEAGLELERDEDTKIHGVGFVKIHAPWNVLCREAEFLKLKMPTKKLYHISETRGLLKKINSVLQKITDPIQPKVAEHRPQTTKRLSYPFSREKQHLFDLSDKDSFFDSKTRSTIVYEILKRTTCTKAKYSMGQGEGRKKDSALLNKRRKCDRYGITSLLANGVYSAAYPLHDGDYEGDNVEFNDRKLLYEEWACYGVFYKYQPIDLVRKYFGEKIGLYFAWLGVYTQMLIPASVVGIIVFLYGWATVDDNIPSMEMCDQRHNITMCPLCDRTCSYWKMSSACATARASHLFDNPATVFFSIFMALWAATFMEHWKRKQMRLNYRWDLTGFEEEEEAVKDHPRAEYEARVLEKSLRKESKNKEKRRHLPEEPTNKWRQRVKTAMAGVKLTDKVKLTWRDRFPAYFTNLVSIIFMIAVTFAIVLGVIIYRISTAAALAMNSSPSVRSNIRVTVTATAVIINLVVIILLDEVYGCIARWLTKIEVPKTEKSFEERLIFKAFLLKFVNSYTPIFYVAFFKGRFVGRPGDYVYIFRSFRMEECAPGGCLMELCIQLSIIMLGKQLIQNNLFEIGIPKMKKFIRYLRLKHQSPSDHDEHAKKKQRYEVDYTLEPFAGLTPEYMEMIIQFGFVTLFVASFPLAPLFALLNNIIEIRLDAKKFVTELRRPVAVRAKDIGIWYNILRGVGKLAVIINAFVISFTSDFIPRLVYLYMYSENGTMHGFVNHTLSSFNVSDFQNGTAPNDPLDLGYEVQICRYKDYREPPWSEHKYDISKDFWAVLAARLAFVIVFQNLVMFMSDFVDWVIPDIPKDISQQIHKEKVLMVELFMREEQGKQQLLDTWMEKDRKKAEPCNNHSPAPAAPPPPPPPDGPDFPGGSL
As to the kind of experiment: whole-cell patch clamp. Type of experiment: cell-based.

Experiment [2] deals with T2, TMEM16A (anoctamin-1) (Homo sapiens, UniProt Q5XXA6).
T2 sequence (Q5XXA6 1-986): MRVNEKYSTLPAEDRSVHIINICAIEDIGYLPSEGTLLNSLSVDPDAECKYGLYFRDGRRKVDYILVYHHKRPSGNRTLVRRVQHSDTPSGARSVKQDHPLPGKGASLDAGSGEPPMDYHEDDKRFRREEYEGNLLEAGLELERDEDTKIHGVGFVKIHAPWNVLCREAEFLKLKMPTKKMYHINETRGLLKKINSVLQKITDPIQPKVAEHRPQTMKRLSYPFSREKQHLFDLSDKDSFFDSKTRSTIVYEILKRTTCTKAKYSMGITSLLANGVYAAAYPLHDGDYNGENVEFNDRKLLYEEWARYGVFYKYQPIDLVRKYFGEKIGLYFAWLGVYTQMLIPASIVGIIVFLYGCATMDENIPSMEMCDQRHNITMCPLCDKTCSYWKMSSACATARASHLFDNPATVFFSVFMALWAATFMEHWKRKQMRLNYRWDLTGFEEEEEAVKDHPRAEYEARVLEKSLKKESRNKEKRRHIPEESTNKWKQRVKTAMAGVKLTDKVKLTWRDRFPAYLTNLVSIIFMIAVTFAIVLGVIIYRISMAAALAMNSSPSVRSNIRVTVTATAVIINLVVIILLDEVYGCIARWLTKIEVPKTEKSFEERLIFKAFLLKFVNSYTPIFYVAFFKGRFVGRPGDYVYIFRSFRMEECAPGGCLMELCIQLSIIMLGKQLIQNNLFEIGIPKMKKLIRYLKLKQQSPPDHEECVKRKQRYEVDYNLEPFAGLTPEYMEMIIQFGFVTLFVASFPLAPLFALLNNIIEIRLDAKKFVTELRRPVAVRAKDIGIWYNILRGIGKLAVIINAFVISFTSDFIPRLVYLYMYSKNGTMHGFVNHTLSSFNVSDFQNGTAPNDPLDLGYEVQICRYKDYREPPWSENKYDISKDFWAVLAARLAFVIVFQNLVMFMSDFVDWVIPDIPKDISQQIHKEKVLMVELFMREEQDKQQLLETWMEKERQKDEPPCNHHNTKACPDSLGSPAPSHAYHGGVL
Put plainly: whole-cell patch clamp. Format: cell-based.

As to ETX001, the figures for the EC50 in experiment [1] and in experiment [2] were 127 ± 21 nM and 116 ± 16 nM, respectively.
